In US10414769B2, “5,8-dimethyl-9-phenyl-5,8-dihydro-6H-pyrazolo[3,4-h]quinazolin-2-yl)-(1H-pyrazol-3-yl)-amines as IGF-1R/IR inhibitors” (Boehringer Ingelheim International GmbH, priority 2015, dated 2019):

Experiments:
[1] = test system: TC-71 (EWING'S sarcoma) cells; assay: Cell proliferation assay TC-71 (Alamar Blue); assay type: cell-based; conditions: anti-proliferative effect, TC-71 cells, 72 h; read-out: TC71 EC50
Description: (§1) Cell Proliferation Assays
(§2) Compounds were tested for their anti-proliferative effects in the TC-71 (EWING'S sarcoma) and HCT 116 (colorectal carcinoma) cancer cell lines in vitro. Published scientific data has described that interference with the IGF-1R signaling pathway reduces the proliferation of TC-71 cells (Manara et al, 2007). Therefore TC-71 cells served as a positive control cell line for monitoring the activity of compounds against IGF-1R-mediated cell proliferation. […] Therefore the HCT 116 cell line served as a negative control.
(§3) 2000 TC-71 cells or 1000 HCT 116 cells were seeded per well in 180 μL IMDM+10% foetal calf serum (FCS)+penicillin/streptomycin into 96-well microtitre plates. The plates were placed in a cell culture incubator (37° C. in a humidified atmosphere of […]/5% CO2) overnight. The following day, serial dilutions of compounds, prepared in duplicates, were transferred onto the cell layers (controls without compound). The cells were cultivated for a further 72 h in the cell culture incubator. 20 μL of Alamar Blue™ (Serotec Ltd, Dusseldorf, Germany) was added to each well and the plates incubated for 7 h in the cell culture incubator. Fluorescence (extinction wavelength of 544 nm and emission at 590 nm) was then measured and the normalized data fitted by iterative calculation with a sigmoidal curve analysis program (Graph Pad Prism) with a variable Hill slope to determine the EC50 values.

[2] = test system: HCT 116 (colorectal carcinoma) cells; assay: Cell proliferation assay HCT 116 (Alamar Blue); assay type: cell-based; conditions: Homo sapiens; anti-proliferative effect, HCT 116 cells (negative control line), 72 h
Description: as §1, §2, §3

[3] = target: T1, human IGF-1R (Homo sapiens, UniProt P08069); assay: Insulin-like growth factor-1 receptor (IGF-1R)-kinase assay (DELFIA); assay type: biochemical; conditions: inhibition of IGF-1R-kinase activity
T1 construct: human IGF-1R (amino acids 964-1370) is expressed as a fusion protein; made in house; host or cells: High Five insect cells (Invitrogen)
Description: Insulin-Like Growth Factor-1 Receptor (IGF-1R)-Kinase Assay
The kinase activity is measured by DELFIA® assay (dissociation-enhanced lanthanide fluorescence immunoassay, Perkin Elmer). The cytoplasmic kinase domain of human IGF-1R (amino acids 964-1370) is expressed as a fusion protein with a glutathione-S-transferase tag (IGF-1R-GST) in High Five™ Cells (Invitrogen). Enzyme activity is measured in the presence of substances and a control substance. Poly-glutamate-tyrosine peptide (pEY, Sigma Aldrich) and biotinylated pEY (bio-pEY) are used as reaction substrates.
10 μL of substance in 25% DMSO are mixed with 30 μL of IGF-1R-GST solution (67 mM HEPES pH 7.4, 15 μg/mL pEY, 1.7 μg/mL bio-pEY, 13.3 mM MgCl2, 3.3 mM dithiothreitol, 0.0033% Brij 35, 2 ng IGF-1R-GST) in 96-well plates. The reactions are started with 10 μL of a 750 μM ATP solution. After 40 min at RT the reactions are stopped with 50 μL of stop solution (250 mM EDTA, 20 mM HEPES pH 7.4). 90 μL from each reaction are transferred onto streptavidin-coated 96-well plates. After 120 min incubation at RT the plates are washed three times with 200 μL phosphate-buffered saline (PBS) per well. The plates are incubated for 60 min with 100 μL of europium-coupled antibody against phospho-tyrosine (diluted 1/2000 in Perkin Elmer DELFIA assay buffer) per well. The plates are washed three times with 200 μL per well of DELFIA washing buffer (Perkin Elmer). 100 μL DELFIA Enhancement Solution (Perkin Elmer) is added to each well, and the plates are incubated for 10 min. The fluorescence signal is measured with a Wallac Victor TRF Reader. IC50 values for the inhibition of the IGF-1R-kinase activity are calculated using the programme GraphPad (Version 3.0).

T1 sequence (P08069 964-1367 limits assumed): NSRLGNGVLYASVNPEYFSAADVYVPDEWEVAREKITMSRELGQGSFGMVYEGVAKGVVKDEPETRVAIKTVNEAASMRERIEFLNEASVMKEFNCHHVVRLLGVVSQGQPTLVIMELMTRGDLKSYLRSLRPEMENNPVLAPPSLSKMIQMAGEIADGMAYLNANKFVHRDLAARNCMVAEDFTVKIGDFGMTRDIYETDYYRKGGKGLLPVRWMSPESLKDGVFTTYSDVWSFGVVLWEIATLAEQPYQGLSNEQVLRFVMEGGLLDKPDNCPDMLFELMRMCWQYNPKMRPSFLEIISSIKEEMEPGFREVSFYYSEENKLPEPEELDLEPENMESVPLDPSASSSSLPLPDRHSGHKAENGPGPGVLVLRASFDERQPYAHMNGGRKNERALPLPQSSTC

EC50 [1] | EC50 [2] | IC50 [3] | Structure (SMILES)
5.93 nM | > 2500 nM | 2.2 nM | C[C@@H]1Cc2nn(C)c(-c3ccccc3)c2-c2nc(Nc3ccn(CCN4CCN(CCO)CC4)n3)ncc21 [Compound I-10]
4 nM | > 2500 nM | 4.8 nM | C[C@@H]1Cc2nn(C)c(-c3ccccc3)c2-c2nc(Nc3ccn(CCN4CCN(CC(C)(C)O)C(=O)C4)n3)ncc21 [Compound I-5]
5 nM | > 2500 nM | 1.1 nM | C[C@@H]1Cc2nn(C)c(-c3ccccc3)c2-c2nc(Nc3ccn(CCN4CCN(CC(=O)OC5CCOC5)CC4)n3)ncc21 (stereo partly drawn) [Compound I-6]
6.82 nM | > 2500 nM | 1.5 nM | CC(C(=O)OC[C@H]1CCCN1)N1CCN(CCn2ccc(Nc3ncc4c(n3)-c3c(nn(C)c3-c3ccccc3)C[C@H]4C)n2)CC1 (stereo partly drawn) [Compound I-4]
